Assay results as given in the supplement of paper PMC11061612.

Experiments:
Test in all cases: combination Emax (second highest fraction inhibited in the dose matrix, 72 h); higher = more inhibition; extreme values may be limits of the assay
[1] = tested on: HOP-92 (Non-Small Cell Lung Carcinoma)
In short: (§1)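 After 24 hours at 37°C and 5% CO2 in 1536-well plates, cells in DMEM/F12 or RPMI plus 10% FBS received two-drug dose matrices for 72 hours. Viability came from CellTiter-Glo 2.0 luminescence and was scaled as inhibition, anchored at 0 by vehicle wells and at 1 by blank wells. Combination Emax is taken as the second-highest inhibition in the matrix, and Bliss excess as the observed combination effect less EA + EB − EA·EB, with EA and EB the single-agent effects.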

[2] = tested on: U-118-MG (Low Grade Glioma)
In short: as §1

[3] = tested on: EFM-192A (Breast Carcinoma)
In short: as §1

[4] = tested on: SKN-3 (Head and Neck Carcinoma)
In short: as §1

[5] = tested on: SNU-61 (Colorectal Carcinoma)
In short: as §1

[6] = tested on: HuO9 (Osteosarcoma)
In short: as §1

[7] = tested on: HLE (Hepatocellular Carcinoma)
In short: as §1

[8] = tested on: BICR78 (Oral Cavity Carcinoma)
In short: as §1

[9] = tested on: P31-FUJ (Acute Myeloid Leukemia)
In short: as §1

[10] = tested on: NOMO-1 (Acute Myeloid Leukemia)
In short: as §1

[11] = tested on: HCT-116 (Colorectal Carcinoma)
In short: as §1

[12] = tested on: PA-TU-8902 (Pancreatic Carcinoma)
In short: as §1

[13] = tested on: KG-1 (Acute Myeloid Leukemia)
In short: as §1

[14] = tested on: Saos-2 (Osteosarcoma)
In short: as §1

[15] = tested on: GDM-1 (Acute Myeloid Leukemia)
In short: as §1

[16] = tested on: YT (Other Blood Carcinomas)
In short: as §1

[17] = tested on: D-392MG (Glioblastoma)
In short: as §1

[18] = tested on: NCI-H1688 (Small Cell Lung Carcinoma)
In short: as §1

[19] = tested on: RCC10RGB (Kidney Carcinoma)
In short: as §1

[20] = tested on: CAL-39 (Other Solid Carcinomas)
In short: as §1

| SMILES | combination Emax [1] | combination Emax [2] | combination Emax [3] | combination Emax [4] | combination Emax [5] | combination Emax [6] | combination Emax [7] | combination Emax [8] | combination Emax [9] | combination Emax [10] | combination Emax [11] | combination Emax [12] | combination Emax [13] | combination Emax [14] | combination Emax [15] | combination Emax [16] | combination Emax [17] | combination Emax [18] | combination Emax [19] | combination Emax [20] |
| --- | --- | --- | --- | --- | --- | --- | --- | --- | --- | --- | --- | --- | --- | --- | --- | --- | --- | --- | --- | --- |
| COc1cccc(OCCCN)c1-c1cc(Nc2cnc(C#N)cn2)n[nH]1 [Prexasertib] + CCc1c2c(nc3ccc(O)cc13)-c1cc3c(c(=O)n1C2)COC(=O)[C@]3(O)CC [SN-38] (first compound max 1 µM, 7x7, partner max 0.3 µM) | 0.873 | 0.986 | 0.318 | 0.885 | 0.698 | 0.995 | 0.95 | 0.845 | 0.979 | 1 | 0.901 | 0.752 | 0.925 | 0.887 | 0.99 | 0.96 | 0.551 | 0.941 | 0.825 | 0.919 |
| COc1cccc(OCCCN)c1-c1cc(Nc2cnc(C#N)cn2)n[nH]1 [Prexasertib] + CN(C)CCCOc1ccc(-c2ccc3ncc4c(c3c2)n(C2CCOCC2)c(=O)n4C)cn1 [AZD0156] (first compound max 1 µM, 7x7, partner max 1 µM) | 0.704 | 0.723 | 0.233 | 0.616 | 0.422 | 0.785 | 0.803 | 0.593 | 0.998 | 1 | 0.536 | 0.586 | 0.903 | 0.644 | 0.913 | 0.964 | 0.567 | 0.568 | 0.484 | 0.258 |
| COc1cccc(OCCCN)c1-c1cc(Nc2cnc(C#N)cn2)n[nH]1 [Prexasertib] + C[C@@H]1COCCN1C2=NC(=NC(=C2)C3(CC3)[S@](=N)(=O)C)C4=C5C=CNC5=NC=C4 [AZD6738] (first compound max 1 µM, 7x7, partner max 10 µM) | 0.669 | 0.772 | 0.188 | 0.637 | 0.422 | 0.855 | 0.867 | 0.645 | 1 | 1 | 0.747 | 0.601 | 0.931 | 0.704 | 0.94 | 0.918 | 0.524 | 0.535 | 0.45 | 0.524 |
| COc1cccc(OCCCN)c1-c1cc(Nc2cnc(C#N)cn2)n[nH]1 [Prexasertib] + Cc1cc2ncnn2cc1Nc1ncc2c(n1)n(C1CCOCC1)c(=O)n2C [AZD7648] (first compound max 1 µM, 7x7, partner max 10 µM) | 0.663 | 0.686 | 0.284 | 0.606 | 0.466 | 0.778 | 0.842 | 0.572 | 1 | 1 | 0.565 | 0.598 | 0.912 | 0.662 | 0.924 | 0.928 | 0.519 | 0.557 | 0.442 | 0.328 |
| COc1cccc(OCCCN)c1-c1cc(Nc2cnc(C#N)cn2)n[nH]1 [Prexasertib] + O=C(c1cc(Cc2n[nH]c(=O)c3ccccc23)ccc1F)N1CCN(C(=O)C2CC2)CC1 [Olaparib] (first compound max 1 µM, 7x7, partner max 10 µM) | 0.665 | 0.751 | 0.143 | 0.616 | 0.474 | 0.878 | 0.842 | 0.679 | 1 | 1 | 0.744 | 0.501 | 1 | 0.806 | 0.91 | 0.966 | 0.491 | 0.528 | 0.479 | 0.387 |
| COc1cc2c(cc1OCCCCCOc1cc3c(cc1OC)C(=O)N1C=C(C)C[C@H]1C=N3)N=C[C@@H]1CC(C)=CN1C2=O [SG3199] + O=C(c1cc(Cc2n[nH]c(=O)c3ccccc23)ccc1F)N1CCN(C(=O)C2CC2)CC1 [Olaparib] (first compound max 0.001 µM, 7x7, partner max 10 µM) | 0.192 | 0.305 | 0.129 | 0.0527 | 0.0451 | 0.2 | 0.143 | 0.131 | 0.124 | 0.145 | 0.314 | 0.0749 | 0.289 | 0.125 | 0.32 | 0.25 | 0.111 | 0.107 | 0.148 | 0.0869 |
| CCc1c2c(nc3ccc(O)cc13)-c1cc3c(c(=O)n1C2)COC(=O)[C@]3(O)CC [SN-38] + CN(C)CCCOc1ccc(-c2ccc3ncc4c(c3c2)n(C2CCOCC2)c(=O)n4C)cn1 [AZD0156] (first compound max 0.3 µM, 7x7, partner max 1 µM) | 0.606 | 0.893 | 0.174 | 0.47 | 0.152 | 0.989 | 0.916 | 0.786 | 0.979 | 0.98 | 0.826 | 0.413 | 0.886 | 0.944 | 0.937 | 0.914 | 0.609 | 0.322 | 0.689 | 0.896 |
